Consider two molecules from US7034053B2, “Phenethanolamine derivatives, compositions, and their use as agonists at atypical beta-adrenoreceptors” (SmithKline Beecham Corporation, priority 2001, dated 2006).

What is called melting point is the temperature of the solid-liquid transition. Regarding `O=C(O)c1ccsc1-c1cccc(NCCNC[C@H](O)c2cccc(Cl)c2)c1` [Example 5, 2-(3-{[2-(3-Chlorophenyl)-2R-hydroxyl-ethylamino]ethylamino}phenyl)thiophene-3-carboxylic acid], the melting point is 275 °C (dec.).

For the molecule `O=C(O)c1ccoc1-c1cccc(NCCNC[C@H](O)c2cccc(Cl)c2)c1` [Example 2, 2-(3-{[2-(3-Chlorophenyl)-2R-hydroxyl-ethylamino]ethylamino}phenyl)furan-3-carboxylic acid], the melting point was 250 °C (dec.).
